{"source": "patent US20230158000A1", "about": "“PHARMACEUTICAL COMPOSITION FOR TREATING OR PREVENTING VIRAL HEPATITIS AND THE USE THEREOF” (Holy Haid Lab Corp, priority 2020, published 2023)", "key": {"[1]": {"tested_on": "hepatitis B virus (HBV)", "conditions": "compared with TDF; cited from earlier work"}, "[2]": {"conditions": "compared with TDF; cited from earlier work"}, "[3]": {"tested_on": "HBV DNA of HepG2-NTCP cells", "experiment": "In vitro anti-HBV activity in HepG2-NTCP cells: HBV DNA in culture supernatant by qPCR", "format": "cell-based", "protocol": "(§1) On day 0, HepG2-NTCP cells were plated into 48-well plates (7.5×10^4 cells/well). On day 1, change to medium containing 2% DMSO.\n(§2) On day 2, the cells were pretreated by adding compounds for 1 hour, and then HepG2-NTCP cells were infected by the addition of […] (compounds were added simultaneously). The test compound was diluted to three concentrations for single treatment, one concentration for combined treatment. Testing in duplicate. The control compound is ETV. See Table 2 for compound concentrations.\n(§3) On days 3, 5 and 7, the medium was replaced with fresh medium containing compounds.\n(§4) On the ninth day, the supernatant was collected, which was then detected by ELISA for levels of HBeAg and HbsAg, and by qPCR for level of HBV DNA. Meanwhile, detecting cell viability by CellTiter-Glo. Collecting cells for cryopreservation (for spare).\n1) Detecting the level of HBV DNA in cell culture supernatant by qPCR\nAccording to the instructions of QIAamp 96 DNA Blood Kit, extracting DNA from cell culture supernatant. The level of HBV DNA was detected by qPCR with HBV-specific primers. PCR reaction: 95° C., 10 min; 95° C., 15 sec, 60° C., 1 min, 40 cycles.\nInhibition rate of HBV DNA (%)=(1-HBV copy number of sample compound group/HBV copy number of DMSO group)×100%"}, "[4]": {"tested_on": "HBeAg in HepG2-NTCP cells", "experiment": "microbe, parasite or virus in culture", "format": "cell-based, HBV", "protocol": "as §1, §2, §3, §4\n(§5) 2) Detecting the levels of HBeAg and HBsAg in cell culture supernatant by ELISA. The test was performed in accordance with the instructions of the kit, and was briefly described as follows:\n(§6) Taking respective 50 μl of standard, sample and control compound, and adding to the detection plate, then adding 50 μl of enzyme conjugate to each well, incubating at 37° C. for 60 minutes, washing the plate with washing solution, blotting dry, then adding 50 μl of premixed luminescent substrate, and incubating at room temperature in the dark for 10 minutes, and finally measuring luminescence values by a microplate reader.\n(§7) Inhibition rate of Hbe/sAg (%)=(1-HBe/sAg level of sample compound/HBe/sAg level of DMSO control group)×100%"}, "[5]": {"tested_on": "AAV-HBV mouse models", "experiment": "In vivo experiments in AAV-HBV mouse models: plasma HBV DNA, HBsAg, HBeAg", "conditions": "AAV-HBV mice, 60mpk by gavage once a day, 90-day period of administration", "protocol": "Experimental method: AAV-HBV mouse models were administered by gavage, once a day; the compound group (G10 HD042, i.e., celecoxib): the dose of celecoxib was 60mpk; and the blank group (G1 vehicle control group): 10% DMSO+40% PEG400+5% Tween 80+45% Saline (V/V) solution.\nDuring the 90-day period of administration, blood was collected on the 6th, 13th, 20th, 27th, 34th, 41st, 48th, 55th, 62nd, 69th, […], 83rd, and 90th days, respectively, and the plasma levels of HBV DNA, HBsAg, HBeAg and anti-HBs were tested with the results shown in FIGS. 4 to 5."}, "[6]": {"tested_on": "HBsAg of HepG2-NTCP cells", "experiment": "In vitro anti-HBV activity in HepG2-NTCP cells: HBsAg in culture supernatant by ELISA", "format": "cell-based", "protocol": "as §1, §2, §3, §4, §5, §6, §7"}, "[7]": {"tested_on": "HepG2-NTCP cells", "experiment": "Cell viability assay by CellTiter-Glo", "format": "cell-based", "conditions": "different concentrations, FIG. 7", "protocol": "as §4\n3) Cell Viability Assay by CellTiter-Glo Cell\nThe cell viability was determined according to the instructions of the CellTiter-Glo kit. The assay is briefly described as follows: Collecting the cell culture supernatant, adding CellTiter-Glo (1:1 dilution of medium) to each well, incubating at room temperature for 10 minutes, and measuring luminescence values with a microplate reader."}, "[8]": {"tested_on": "HBeAg and HBsAg", "conditions": "as reported in the literature; cited from earlier work"}, "[9]": {"conditions": "repeated parallel experiments, FIG. 6"}, "[10]": {"conditions": "Hepatitis B virus, 216 h, read-out: HBeAg inhibition rate"}, "[11]": {"conditions": "Hepatitis B virus, 216 h, read-out: HBsAg inhibition rate"}}}
{"smiles": "CC(C)OC(=O)[C@H](C)N[P@](=O)(CO[C@H](C)Cn1cnc2c(N)ncnc21)Oc1ccccc1", "note": "[Tenofovir alafenamide, Tenofovir Alafenamide]", "values": [{"measurement": "antiviral activity relative to tenofovir disoproxil TDF", "setting": "[1]", "result": 10, "unit": "times"}, {"measurement": "half-life relative to tenofovir disoproxil TDF", "setting": "[2]", "result": 225, "unit": "times"}, {"measurement": "stability in plasma relative to tenofovir disoproxil TDF", "setting": "[2]", "result": 200, "unit": "times"}]}
{"smiles": "Cc1ccc(-c2cc(C(F)(F)F)nn2-c2ccc(S(N)(=O)=O)cc2)cc1", "note": "[compound of formula 1, celecoxib]", "values": [{"measurement": "inhibition at 1 µM", "setting": "[3]; Hepatitis B virus, 216 h, 1 μM compound of formula 1, HepG2-NTCP cells, supernatant day 9, read-out: HBV DNA inhibition rate", "result": 7.59, "unit": "%"}, {"measurement": "inhibition at 10 µM", "setting": "[3]; Hepatitis B virus, 216 h, 10 μM compound of formula 1, HepG2-NTCP cells, supernatant day 9, read-out: HBV DNA inhibition rate", "result": 49.2, "unit": "%"}, {"measurement": "inhibition at 20 µM", "setting": "[3]; Hepatitis B virus, 216 h, 20 μM compound of formula 1, HepG2-NTCP cells, supernatant day 9, read-out: HBV DNA inhibition rate", "result": 73, "unit": "%"}, {"measurement": "inhibitory effect on HBV DNA, repeated cell experiments", "setting": "[3]; [9]", "result": "significant dose-dependent manner"}, {"measurement": "inhibition at 1 µM", "setting": "[4]; [10]", "result": 18, "unit": "%"}, {"measurement": "inhibition at 10 µM", "setting": "[4]; [10]", "result": 50.4, "unit": "%"}, {"measurement": "inhibition at 20 µM", "setting": "[4]; [10]", "result": 78.1, "unit": "%"}, {"measurement": "inhibitory effect on HBeAg, repeated cell experiments", "setting": "[4]; [9]", "result": "significant dose-dependent manner"}, {"measurement": "reduction of plasma level of HBV DNA", "setting": "[5]", "result": 0.72, "unit": "Log 10 copy/mL"}, {"measurement": "reduction of plasma level of HBeAg", "setting": "[5]", "result": 0.34, "unit": "Log 10 PEIU/mL"}, {"measurement": "reduction of plasma level of HBsAg", "setting": "[5]", "result": 0.76, "unit": "Log 10 IU/mL"}, {"measurement": "inhibition at 1 µM", "setting": "[6]; [11]", "result": 21.5, "unit": "%"}, {"measurement": "inhibition at 10 µM", "setting": "[6]; [11]", "result": -7.65, "unit": "%"}, {"measurement": "inhibition at 20 µM", "setting": "[6]; [11]", "result": 46.1, "unit": "%"}, {"measurement": "inhibitory effect on HBsAg, repeated cell experiments", "setting": "[6]; [9]", "result": "significant dose-dependent manner"}, {"measurement": "cytotoxicity on HepG2-NTCP cells", "setting": "[7]", "result": "an effect on the virus rather than cytotoxicity"}]}
{"smiles": "C=C1C(CO)C(O)CC1n1cnc2c(=O)nc(N)[nH]c21", "note": "[ETV, 2-amino-1,9-dihydro-9-[(1S,3R,4S)-4-hydroxy-3-(hydroxymethyl)-2-methylenecyclopentane]-6H-purin-6-one]", "values": [{"measurement": "inhibition at 0.0001 µM", "setting": "[3]; Hepatitis B virus, 216 h, 0.1 nM ETV, HepG2-NTCP cells, supernatant day 9, read-out: HBV DNA inhibition rate", "result": 44.7, "unit": "%"}, {"measurement": "inhibition at 0.0001 µM", "setting": "[4]; [10]", "result": -1.35, "unit": "%"}, {"measurement": "effect on reducing HBeAg and HBsAg", "setting": "[8]", "result": "little effect"}, {"measurement": "inhibition at 0.0001 µM", "setting": "[6]; [11]", "result": 1.22, "unit": "%"}]}
